Source: patent publication US9629830B2, “EphA4 inhibitors as neuroprotective agents” (The Hong Kong University of Science and Technology, priority 2013, dated 2017)

Tests used:
[1] = molecular target: EphA4 (Homo sapiens, UniProt P54764); assay: Inhibition of EphA4 signaling (assay not specified)
[2] = tested on: EphA4-dependent growth cone collapse in hippocampal neurons; assay: EphA4-dependent (ephrin-A1-stimulated) growth cone collapse assay; type: cell-based, rat; conditions: for ephrin-A1-stimulated growth cone collapse: cultured hippocampal neurons
Experimental: Ephrin-A1-Fc was pre-clustered with goat anti-human Fc antibody (1:4.5)^24 and incubated at room temperature for 60 min before use. The growth cone collapse assay was performed in hippocampal neurons with ephrin-A1 0.1 μg/mL as described previously^61.
For EphA4 clustering, neurons were stained with anti-EphA4 and anti-Tau-1 antibodies. For the growth cone collapse assay, neurons were stained with Alexa Fluor 555-conjugated phalloidin (Molecular Probes) for filamentous actin and anti-Tau-1 antibody for axons. Collapsed growth cones were scored in a double-blinded manner. The experiments were repeated at least 3 times, and >50 neurons were analyzed for each experiment. Data are presented as mean±SEM.
To screen for small molecule EphA4 inhibitors, the inventors performed a molecular docking analysis using a small molecule library. […] Their ability in inhibiting EphA4 inhibiting the EphA4-dependent growth cone collapse using cultured hippocampal neurons was performed.

[3] = tested on: Aβ-induced reduction of neurotransmission in hippocampal neurons; assay: mEPSC recording in Aβ-treated cultured hippocampal neurons; type: cell-based, rat
Experimental: Primary cortical and hippocampal neurons were prepared from embryonic day 18-19 rat embryos as described previously^24. Briefly, cortical neurons (6×10^6 per plate) were plated on 100-mm culture dishes coated with poly-D-lysine (12.5 μg/mL; Sigma). Rat hippocampal neurons were seeded on 18-mm coverslips coated with poly-D-lysine (50 μg/mL) at a density of 0.5×10^5/18-mm coverslip for immunocytochemical analysis, 0.1×10^5/18-mm coverslip for growth cone collapse assay, or 1×10^5 or 1.5×10^5/18-mm coverslip for mEPSC recording. Neurons were fed Neurobasal medium (Invitrogen) supplemented with 2% B27 (Invitrogen). Acute brain slices were prepared from P15-P17 Sprague-Dawley rats. Briefly, the rats were rapidly decapitated, and their brains were immersed in ice-cold artificial cerebrospinal fluid (ACSF). The hippocampus was dissected, and 300-μm-thick slices were prepared using a vibratome (Lieca). The slices were then transferred into an incubating chamber containing circulating ACSF equilibrated with 95% O2+5% CO2 and held at room temperature for at least 2 h for recovery prior to experiments^65.
For miniature EPSC recordings, hippocampal neurons at ˜25-28 DIV were co-treated with or without 500 nM Aβ together with the testing reagents for 24 h. Whole-cell patch-clamp recordings were made at room temperature with external solution containing (in mM) 110 NaCl, 5 KCl, 2 CaCl2, 0.8 MgCl2, 10 HEPES, and 10 D-glucose (pH 7.4) as well as an internal solution containing (in mM) 135 CsCl2, 10 HEPES, 2 MgCl2, 4 NaATP, 0.4 NaGTP, and 0.5 EGTA (pH 7.2)^24,27. Picrotoxin ([…]) was included in the external solution to block GABAergic IPSCs along with 0.5 μM TTX to prevent action potential-evoked EPSCs. For miniature EPSC recordings, cells were held at −70 mV. The pipette resistances for these experiments were typically 3-5 MΩ, while series resistances were 15-20 MΩ. The minis from each cell was recorded for 1 min in each condition. The measurement of mEPSC was according to that described in Mini Analysis Program for measuring AMPA receptor EPSCs (Synaptosoft Inc.). Only recording epochs in which series and input resistances varied <10% were analyzed. Data are presented as the mean±SEM of at least 3 experiments.

[4] = molecular target: T1, extracellular domain of EphA4 (Homo sapiens, UniProt P54764); assay: In vitro pull-down of recombinant EphA4-Fc with biotinylated Rhy on streptavidin beads; type: binding; conditions: western blot
T1 construct: purchased R&D Systems
Experimental: For the pull-down analysis, Bio-Rhy was bound to streptavidin magnetic beads for 1 h, the beads was then incubated with recombinant EphA4-Fc or EphB2-Fc in the presence of 0.5% BSA for 1 h. After incubation, the beads were washed 4 times with DPBS and the presence of Eph in the complex was determined by western blot analysis.

[5] = molecular target: T2, EphA4 (HT-22 cells) (Mus musculus, UniProt Q03137); assay: Cell-based binding of biotinylated ephrin-A1 to the surface of HT-22 cells; conditions: 10 min pre-incubation; Rhy 300 μM, KYL 100 μM (FIG. 10); biotinylated ephrin-A1 0.5 μg/mL
T2 construct: HT-22 cells, a cell line that expresses EphA4; endogenous in cells; host or cells: HT-22 cells
Experimental: HT-22 cells were seeded on poly-D-lysine coverslips. […] The cells were then fixed with 4% paraformaldehyde and then immunostained with Alexa Fluor 488-conjugated Streptavidin antibody (Molecular Probes) for surfacing labeling of biotinylated ephrin-A1.

[6] = molecular target: T3, EphA4 (Rattus norvegicus, UniProt D3ZZK3); assay: Aβ-stimulated EphA4 tyrosine phosphorylation in acute hippocampal slices; type: cell-based; conditions: KYL 0.5 h pretreatment then Aβ 2 h
T3 construct: endogenous in cells; host or cells: primary rat cortical neurons (A5), primary rat hippocampal neurons (A7)
Experimental: Hippocampal synaptosomes were prepared as described previously^67. Acute hippocampal slices from P15-P17 rats were lysed in radioimmunoprecipitation assay (RIPA) buffer (1% Triton X-100, 1% sodium deoxycholate, 0.1% SDS, 150 mM NaCl, 10 mM sodium phosphate, 2 mM EDTA, and 0.2% sodium vanadate) with various protease inhibitors. For the Cdk5 kinase assay, cultured cortical neurons [16 days in vitro (DIV)] were lysed in lysis buffer A (20 mM Tris [pH 7.6], 150 mM NaCl, 1 mM EDTA, 1 mM EGTA, 1 mM NaF, and 0.5% Nonidet P-40) with various protease inhibitors. Western blot analysis was performed as described previously^24.
For the immunoprecipitation assay, lysates were immunoprecipitated with the corresponding antibody for 2 h at 4° C. followed by incubation with protein G Sepharose for 1 h at 4° C.^24. The samples were washed with RIPA buffer or buffer A and resuspended in SDS sample buffer. EphA4 tyrosine phosphorylation was detected by western blot analysis using 4G10 antibody.

[7] = tested on: Aβ-triggered reduction of dendritic spines in hippocampal neurons; assay: Dendritic spine analysis in Aβ-treated hippocampal neurons; type: cell-based, rat
Experimental: Cultured rat hippocampal neurons were transfected with GFP plasmid at 14-16 DIV and exposed to Aβ at 24-28 DIV for 24 h after treatment with 30 μM KYL peptide. The neurons were fixed with 4% paraformaldehyde and examined using confocal microscopy using a 63× objective lens as previously described^24.

[8] = tested on: Aβ-induced impairment of hippocampal LTP; assay: HFS-induced LTP (fEPSP slope) in acute hippocampal slices treated with Aβ; type: cell-based, mouse
Experimental: Oligomeric Aβ (Aβ) was prepared as described previously^59,60. Briefly, 0.5 mg monomeric Aβ1-42 was dissolved in 22.2 μL dry DMSO and then diluted in ice-cold phenol-red free F-12 medium to yield a final Aβ concentration of 100 μM. The Aβ solution was incubated at 4° C. for 24 h and then centrifuged at 14,000×g for 10 min. The supernatant was frozen in liquid nitrogen and stored at −20° C. for up to 1 month. Unless specified, cultured neurons or hippocampal slices were typically treated with Aβ at 500 nM.
(§1) For LTP recordings, mouse brains were immediately dissected after sacrifice and soaked in ice-cold 95% O2/5% CO2 (aCSF)^58. Brain slices (300 μm thick) were prepared using a vibrating tissue slicer (HM650V; Thermo), and soaked in oxygenated buffer for 2 h at 32° C. The hippocampal regions were resected and placed at the center of a MED-P210A probe (Panasonic International Inc) with 64 embedded recording electrodes. The slices were then perfused with Aβ at 500 nM in oxygenated aCSF for 2 h before LTP induction^70. For treatment with EphA4 inhibitors, the slices were pretreated with peptides or chemicals for 1 h before application of Aβ. fEPSPs were recorded using a MED64 multichannel recording system, and the data were collected from the dendritic layer of area CA1 at a sampling rate of 10 kHz. For each slice, the baseline stimulus intensity was set at the level that elicited ˜50% of the maximum fEPSP response determined according to the input-output curve. LTP was induced by 3 trains of HFS (100 Hz, 1 s, delivered 30 s apart). The magnitude of LTP was quantified as a percentage change in the fEPSP slope (10%-90%) taken during the 60-min interval after LTP induction.

[9] = tested on: APP/PS1 mutant mice; assay: HFS-induced hippocampal LTP in WT and APP/PS1 mice after in vivo treatment; parameters: species or system mouse; conditions: KYL infused by osmotic pump (17 μg, ~3 weeks)
Source text: APP/PS1 double-transgenic mice were obtained from Jackson Laboratory (B6C3-Tg[APPswe, PSEN1dE9]85Dbo/J)^66. These mice were generated by incorporating a human/murine APP construct bearing the Swedish double mutation and the exon-9-deleted PSEN1 mutation (APPswe+PSEN1/dE9). APP transgenic mice (Tg2576) expressing a double mutant of human AβPP (Lys^670→Asn^670, Met^671→Leu^671) were also used^31. Both sexes were used for experiments, and all mice used in this study were produced by the Animal Care Facility of The Hong Kong University of Science and Technology. The genotype was confirmed by polymerase chain reaction analysis of tail biopsies. Four to five mice of the same sex were housed in a cage with food and water ad libitum with a 12-hour light/dark cycle.
To investigate the effect of blocking EphA4 signaling by KYL peptide in AD mice, 4-5-month-old AD transgenic mice were implanted with Alzet mini-osmotic pumps, model 1004, pumping its contents at 0.11 μL/h for 28 days. Pumps were loaded with either 0.23 μg/μL KYL peptide (17 μg) or vehicle solvent in artificial cerebrospinal fluid (CSF). The mini-osmotic pumps were adjusted intracerebroventricularly in the right hemisphere. EphA4 in the CA1 regions of APP/PS1 mice was knocked down by injecting vesicular stomatitis virus glycoprotein G-pseudotyped lentiviral particles with pFUGW-shEphA4 bilaterally into the corresponding regions as described previously^58.
as §1, with “The hippocampal regions were resected and placed at the center of a MED-P210A probe (Panasonic International Inc) with 64 embedded recording electrodes. The slices were then perfused with Aβ at 500 nM in oxygenated aCSF for 2 h before LTP induction^70.” left out, “LTP was induced by 3 trains of HFS (100 Hz, 1 s, delivered 30 s apart).” left out
WT and APP/PS1 mutant (Tg) mice were orally administered with corylin ([…]) by daily gavage for 3-4 weeks prior to LTP measurements. LTP induced by 3 trains of HFS (100 Hz for 1 s delivered 30 s apart) in the CA1 region of the SC pathway of the hippocampus was measured. The magnitude of LTP was quantified as the percentage change in the fEPSP slope (10-90%) taken during the 60-min interval after LTP induction.

[10] = inhibitor (Cpd1 500 μM, Ros 10 μM) + Aβ, Aβ alone 818.1±28.2 ms
[11] = inhibitor alone (Cpd1 500 μM, Ros 10 μM), control 454.1±12.5 ms

Sequence of EphA4 (Homo sapiens, UniProt P54764) (P54764 20-986, species assumed): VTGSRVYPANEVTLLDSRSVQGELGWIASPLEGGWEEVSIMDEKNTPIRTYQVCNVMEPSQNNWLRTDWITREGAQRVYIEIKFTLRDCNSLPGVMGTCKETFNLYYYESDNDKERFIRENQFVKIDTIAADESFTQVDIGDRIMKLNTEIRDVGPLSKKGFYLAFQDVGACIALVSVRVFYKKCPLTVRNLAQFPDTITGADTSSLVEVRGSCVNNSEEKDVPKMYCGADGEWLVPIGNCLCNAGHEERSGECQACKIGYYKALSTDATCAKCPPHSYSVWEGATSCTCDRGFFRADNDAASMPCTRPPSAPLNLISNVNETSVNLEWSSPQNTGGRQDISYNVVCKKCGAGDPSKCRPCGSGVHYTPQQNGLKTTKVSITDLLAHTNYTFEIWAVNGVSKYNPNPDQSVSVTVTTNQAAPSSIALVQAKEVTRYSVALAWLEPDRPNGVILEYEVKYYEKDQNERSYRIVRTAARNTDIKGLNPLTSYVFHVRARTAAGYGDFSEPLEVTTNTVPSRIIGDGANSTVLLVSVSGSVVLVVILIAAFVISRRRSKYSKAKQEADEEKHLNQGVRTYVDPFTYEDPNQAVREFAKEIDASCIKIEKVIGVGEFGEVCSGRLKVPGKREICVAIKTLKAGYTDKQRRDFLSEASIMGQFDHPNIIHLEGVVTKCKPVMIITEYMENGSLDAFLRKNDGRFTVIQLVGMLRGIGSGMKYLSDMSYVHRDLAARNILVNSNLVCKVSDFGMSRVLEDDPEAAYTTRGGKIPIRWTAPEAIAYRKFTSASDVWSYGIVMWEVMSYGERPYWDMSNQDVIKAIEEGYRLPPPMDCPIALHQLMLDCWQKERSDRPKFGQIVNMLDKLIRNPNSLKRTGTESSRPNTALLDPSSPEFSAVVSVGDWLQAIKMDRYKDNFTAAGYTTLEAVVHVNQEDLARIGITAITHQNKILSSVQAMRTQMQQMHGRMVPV
T2 sequence (Q03137 20-986): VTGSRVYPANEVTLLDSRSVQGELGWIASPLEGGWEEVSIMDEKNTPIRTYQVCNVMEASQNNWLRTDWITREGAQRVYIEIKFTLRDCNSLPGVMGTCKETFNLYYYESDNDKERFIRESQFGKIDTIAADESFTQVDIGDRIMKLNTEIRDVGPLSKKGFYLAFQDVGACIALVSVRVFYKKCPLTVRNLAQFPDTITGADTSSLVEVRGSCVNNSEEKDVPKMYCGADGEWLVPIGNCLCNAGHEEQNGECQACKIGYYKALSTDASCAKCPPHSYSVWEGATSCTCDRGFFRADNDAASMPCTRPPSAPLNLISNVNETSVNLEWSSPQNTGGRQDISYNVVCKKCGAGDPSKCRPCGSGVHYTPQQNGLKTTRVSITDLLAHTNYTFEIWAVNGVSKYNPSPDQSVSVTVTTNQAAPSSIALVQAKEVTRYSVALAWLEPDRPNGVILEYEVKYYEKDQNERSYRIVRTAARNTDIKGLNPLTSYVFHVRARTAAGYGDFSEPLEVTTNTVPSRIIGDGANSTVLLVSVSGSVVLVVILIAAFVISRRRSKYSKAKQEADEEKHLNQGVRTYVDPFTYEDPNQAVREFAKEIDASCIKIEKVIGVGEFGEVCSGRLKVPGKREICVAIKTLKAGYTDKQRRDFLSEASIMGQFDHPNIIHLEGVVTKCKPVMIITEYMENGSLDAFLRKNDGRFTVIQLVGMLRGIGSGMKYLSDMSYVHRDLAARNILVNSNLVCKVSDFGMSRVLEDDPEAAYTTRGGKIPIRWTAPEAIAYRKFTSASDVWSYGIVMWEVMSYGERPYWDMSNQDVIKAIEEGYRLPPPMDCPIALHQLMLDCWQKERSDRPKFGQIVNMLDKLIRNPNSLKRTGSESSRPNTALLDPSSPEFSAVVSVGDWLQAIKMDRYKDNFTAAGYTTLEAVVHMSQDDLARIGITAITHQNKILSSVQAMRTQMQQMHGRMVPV
T3 sequence (D3ZZK3 20-986): as the sequence (Q03137 20-986) above, with S270T, K559Q, S874P counted along it
T1 sequence (P54764 20-547 limits assumed): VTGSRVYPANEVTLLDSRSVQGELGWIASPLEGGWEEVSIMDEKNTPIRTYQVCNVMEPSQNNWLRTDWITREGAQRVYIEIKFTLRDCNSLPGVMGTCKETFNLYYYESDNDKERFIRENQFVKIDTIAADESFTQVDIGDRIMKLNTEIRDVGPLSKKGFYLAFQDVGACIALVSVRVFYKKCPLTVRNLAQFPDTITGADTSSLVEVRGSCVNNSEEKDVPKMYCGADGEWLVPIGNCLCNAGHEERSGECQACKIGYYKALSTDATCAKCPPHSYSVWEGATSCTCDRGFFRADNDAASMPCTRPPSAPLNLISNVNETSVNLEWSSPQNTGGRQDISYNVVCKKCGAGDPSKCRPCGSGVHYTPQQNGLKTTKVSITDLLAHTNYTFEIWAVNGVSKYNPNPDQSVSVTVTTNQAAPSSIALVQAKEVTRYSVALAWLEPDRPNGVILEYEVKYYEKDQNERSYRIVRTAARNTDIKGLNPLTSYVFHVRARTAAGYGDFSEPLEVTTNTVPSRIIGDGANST

CC[C@H]1CN2CC[C@@]3(C(=O)Nc4ccccc43)[C@@H]2C[C@@H]1/C(=C\OC)C(=O)OC [IsoRhy, isorhynchophylline]
inhibition of EphA4 signaling [1]: inactive in inhibiting EphA4 signaling

Cc1ccc(C)n1-c1ccc(C(=O)O)c(O)c1 [Cpd1, 2-hydroxy-4-(2,5-dimethyl-1-pyrrolyl)benzoic acid, reference compound]
ephrin-A1-stimulated growth cone collapse [2]: also inhibited ephrin-A1-stimulated growth cone collapse | concentration at which ephrin-A1-stimulated growth cone collapse is inhibited ([2]; data not shown): exceeding 10 μM | mEPSC inter-event interval [3, 10]: 542.6 ± 15.4 ms | mEPSC inter-event interval [3, 11]: 559.5 ± 16.6 ms

CCC1CN2CCC3(C(=O)N(CCCCCCNC(=O)CCCCC4SCC5NC(=O)NC54)c4ccccc43)C2CC1C(=COC)C(=O)OC (centres unmarked) [Bio-Rhy]
binding to the extracellular domain of EphA4 (pull-down, words) [4]: bound specifically to the extracellular domain of EphA4

KYLPYWPVLSSL [KYL peptide, reference compound]
binding of ephrin-A1 to HT-22 cells [5]: reduced the binding of ephrin-A1 to HT-22 cells | Aβ-stimulated tyrosine phosphorylation of EphA4 [6]: abolished the Aβ-stimulated tyrosine phosphorylation of EphA4 | dendritic spine density ([7]; KYL peptide alone (30 μM), control 0.66±0.1/μm): 0.55±0.13 /μm | dendritic spine density ([7]; co-treatment of Aβ (24 h) and KYL peptide (30 μM), Aβ alone 0.46±0.21/μm): 0.61±0.18 /μm | mean fEPSP slope, last 10 min after LTP induction ([8]; KYL peptide 100 μM + Aβ, Aβ alone 132±6.06%): 174.9±9.0% | mean fEPSP slope, last 10 min after LTP induction ([8]; KYL peptide 100 μM alone, control 169±6.72%): 164.6±5.7% | mean fEPSP slope, last 10 min after LTP induction ([9]; APP/PS1 (Tg) mice, Tg Con 154.0±8.2%): 181.9±8.6% | mean fEPSP slope, last 10 min after LTP induction ([9]; WT mice, WT Con 191.8±9.5%): 190.1±6.9%

CC[C@H](CO)Nc1nc(NCc2ccccc2)c2ncn(C(C)C)c2n1 [Ros, roscovitine]
mEPSC inter-event interval [3, 10]: 494.1 ± 11.7 ms | mEPSC inter-event interval [3, 11]: 451.0 ± 11.2 ms

CC(C)[C@@H]1[C@H]2OC(=O)[C@@H]1[C@@H]1CC[C@@H]3CN(C)[C@H]2[C@@]31C [Dendrobine, dendrobine]
ephrin-A1-stimulated growth cone collapse [2]: inhibited ephrin-A1-stimulated growth cone collapse
